{"source": "patent US11725011B2", "about": "“Bicyclic urea kinase inhibitors and uses thereof” (The Broad Institute, Inc., priority 2016, dated 2023)", "key": {"CAMK1": {"biological_target": "CAMK1 (Homo sapiens (Human), UniProt Q14012)", "assay": "KINOMEscan", "format": "binding", "settings": "1 uM"}, "KIT (V559D)": {"biological_target": "KIT (V559D) (Homo sapiens (Human), UniProt P10721, V559D)", "assay": "KINOMEscan", "format": "binding", "settings": "1 uM"}, "SIK": {"biological_target": "SIK (Homo sapiens (Human), UniProt P57059)", "assay": "KINOMEscan", "format": "binding", "settings": "1 uM"}, "AURKB": {"biological_target": "AURKB (Homo sapiens (Human), UniProt Q96GD4)", "assay": "KINOMEscan", "format": "binding", "settings": "1 uM"}, "Viability loss (Table 4)": {"assay": "Viability loss (Table 4)", "format": "cell-based"}, "MARK2": {"biological_target": "MARK2 (Homo sapiens (Human), UniProt Q7KZI7)", "assay": "KINOMEscan", "format": "binding", "settings": "1 uM"}, "PFPK5 (P. falciparum)": {"biological_target": "PFPK5 (P. falciparum) (Plasmodium falciparum (isolate 3D7), UniProt P61075)", "assay": "KINOMEscan", "format": "binding", "settings": "1 uM"}, "CSNK1D": {"biological_target": "CSNK1D (Homo sapiens (Human), UniProt P48730)", "assay": "KINOMEscan", "format": "binding", "settings": "1 uM"}, "SBK1": {"biological_target": "SBK1 (Homo sapiens (Human), UniProt Q52WX2)", "sequence (Q52WX2 whole entry)": "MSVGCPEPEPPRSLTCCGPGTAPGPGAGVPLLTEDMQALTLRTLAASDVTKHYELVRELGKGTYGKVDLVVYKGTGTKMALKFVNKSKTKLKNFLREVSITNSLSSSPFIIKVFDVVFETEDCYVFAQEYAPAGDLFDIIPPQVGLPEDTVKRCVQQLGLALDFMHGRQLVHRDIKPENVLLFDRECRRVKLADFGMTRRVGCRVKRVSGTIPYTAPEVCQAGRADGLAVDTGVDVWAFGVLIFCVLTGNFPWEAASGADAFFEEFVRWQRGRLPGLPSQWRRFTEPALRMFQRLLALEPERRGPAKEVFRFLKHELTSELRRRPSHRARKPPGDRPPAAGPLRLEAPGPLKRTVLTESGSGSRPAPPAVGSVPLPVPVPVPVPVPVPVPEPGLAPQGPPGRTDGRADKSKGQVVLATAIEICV", "assay": "KINOMEscan", "format": "binding", "settings": "1 uM"}, "PIK3CA (E542K)": {"biological_target": "PIK3CA (E542K) (Homo sapiens (Human), UniProt P42336, E542K)", "assay": "KINOMEscan", "format": "binding", "settings": "1 uM"}, "CSNK1G1": {"biological_target": "CSNK1G1 (Homo sapiens (Human), UniProt Q9HCP0)", "sequence (Q9HCP0 whole entry)": "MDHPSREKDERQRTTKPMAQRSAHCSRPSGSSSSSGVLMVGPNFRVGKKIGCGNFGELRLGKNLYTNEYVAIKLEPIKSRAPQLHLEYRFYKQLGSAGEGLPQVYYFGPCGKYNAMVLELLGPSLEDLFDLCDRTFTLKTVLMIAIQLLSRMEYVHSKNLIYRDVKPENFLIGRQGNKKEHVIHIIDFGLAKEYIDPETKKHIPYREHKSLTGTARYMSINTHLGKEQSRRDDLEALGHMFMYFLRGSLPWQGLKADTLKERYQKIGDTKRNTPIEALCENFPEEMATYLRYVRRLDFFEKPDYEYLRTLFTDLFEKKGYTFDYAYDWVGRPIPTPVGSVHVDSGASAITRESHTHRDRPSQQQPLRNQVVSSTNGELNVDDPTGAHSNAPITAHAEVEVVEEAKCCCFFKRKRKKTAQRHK", "assay": "KINOMEscan", "format": "binding", "settings": "1 uM"}, "FGR": {"biological_target": "FGR (Homo sapiens (Human), UniProt P09769)", "assay": "KINOMEscan", "format": "binding", "settings": "1 uM"}, "PAK3": {"biological_target": "PAK3 (Homo sapiens (Human), UniProt O75914)", "assay": "KINOMEscan", "format": "binding", "settings": "1 uM"}, "ACVR1": {"biological_target": "ACVR1 (Homo sapiens (Human), UniProt Q04771)", "sequence (Q04771 21-509)": "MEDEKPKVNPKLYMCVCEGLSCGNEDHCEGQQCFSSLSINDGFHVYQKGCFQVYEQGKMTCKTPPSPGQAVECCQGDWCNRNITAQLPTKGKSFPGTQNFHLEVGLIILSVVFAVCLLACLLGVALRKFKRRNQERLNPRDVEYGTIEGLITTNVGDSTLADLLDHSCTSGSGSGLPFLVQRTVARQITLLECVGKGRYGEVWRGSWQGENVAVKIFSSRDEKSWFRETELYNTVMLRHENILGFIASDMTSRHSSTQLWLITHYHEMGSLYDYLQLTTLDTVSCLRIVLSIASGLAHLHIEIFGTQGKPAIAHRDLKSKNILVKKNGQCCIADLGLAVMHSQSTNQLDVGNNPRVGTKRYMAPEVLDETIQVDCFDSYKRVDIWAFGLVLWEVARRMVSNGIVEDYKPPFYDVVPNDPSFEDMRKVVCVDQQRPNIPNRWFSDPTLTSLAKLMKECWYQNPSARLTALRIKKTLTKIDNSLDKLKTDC", "assay": "KINOMEscan", "format": "binding", "settings": "1 uM"}, "ULK2": {"biological_target": "ULK2 (Homo sapiens (Human), UniProt Q8IYT8)", "assay": "KINOMEscan", "format": "binding", "settings": "1 uM"}, "AURKC": {"biological_target": "AURKC (Homo sapiens (Human), UniProt Q9UQB9)", "assay": "KINOMEscan", "format": "binding", "settings": "1 uM"}, "NEK4": {"biological_target": "NEK4 (Homo sapiens (Human), UniProt P51957)", "assay": "KINOMEscan", "format": "binding", "settings": "1 uM"}, "LIMK1": {"biological_target": "LIMK1 (Homo sapiens (Human), UniProt P53667)", "assay": "KINOMEscan", "format": "binding", "settings": "1 uM"}, "SNARK": {"biological_target": "SNARK (Homo sapiens (Human), UniProt Q9H093)", "assay": "KINOMEscan", "format": "binding", "settings": "1 uM"}, "ZAP70": {"biological_target": "ZAP70 (Homo sapiens (Human), UniProt P43403)", "assay": "KINOMEscan", "format": "binding", "settings": "1 uM"}, "[1]": {"biological_target": "ABL1 (T315I)-phosphorylated (Homo sapiens (Human), UniProt P00519, T315I)", "assay": "KINOMEscan", "format": "binding", "settings": "1 uM"}, "p38-delta": {"biological_target": "p38-delta (Homo sapiens (Human), UniProt O15264)", "sequence (O15264 whole entry)": "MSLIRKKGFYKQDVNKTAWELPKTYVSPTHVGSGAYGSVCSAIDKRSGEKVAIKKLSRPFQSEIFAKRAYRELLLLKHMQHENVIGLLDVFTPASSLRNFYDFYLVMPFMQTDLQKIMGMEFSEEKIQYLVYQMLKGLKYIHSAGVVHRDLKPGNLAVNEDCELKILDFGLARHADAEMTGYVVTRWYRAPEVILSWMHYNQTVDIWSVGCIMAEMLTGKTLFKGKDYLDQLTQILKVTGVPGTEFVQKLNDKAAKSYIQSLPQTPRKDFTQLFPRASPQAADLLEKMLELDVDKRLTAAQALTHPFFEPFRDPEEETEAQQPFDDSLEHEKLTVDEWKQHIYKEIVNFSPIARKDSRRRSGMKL", "assay": "KINOMEscan", "format": "binding", "settings": "1 uM"}, "AKT2": {"biological_target": "AKT2 (Homo sapiens (Human), UniProt P31751)", "sequence (P31751 whole entry)": "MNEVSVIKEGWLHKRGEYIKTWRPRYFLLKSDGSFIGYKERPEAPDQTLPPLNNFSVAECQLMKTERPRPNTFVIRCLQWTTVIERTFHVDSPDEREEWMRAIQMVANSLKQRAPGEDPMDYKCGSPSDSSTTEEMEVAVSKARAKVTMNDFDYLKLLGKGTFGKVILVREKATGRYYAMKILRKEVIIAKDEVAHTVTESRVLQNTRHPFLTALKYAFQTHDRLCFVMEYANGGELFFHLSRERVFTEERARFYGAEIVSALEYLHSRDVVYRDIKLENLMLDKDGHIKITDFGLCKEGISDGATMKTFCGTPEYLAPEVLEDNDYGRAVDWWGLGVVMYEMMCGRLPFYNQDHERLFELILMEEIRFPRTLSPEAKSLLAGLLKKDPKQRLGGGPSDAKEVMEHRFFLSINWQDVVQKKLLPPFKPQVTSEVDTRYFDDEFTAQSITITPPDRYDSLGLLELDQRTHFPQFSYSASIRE", "assay": "KINOMEscan", "format": "binding", "settings": "1 uM"}, "ULK1": {"biological_target": "ULK1 (Homo sapiens (Human), UniProt O75385)", "assay": "KINOMEscan", "format": "binding", "settings": "1 uM"}, "PRKG1": {"biological_target": "PRKG1 (Homo sapiens (Human), UniProt Q13976)", "sequence (Q13976 whole entry)": "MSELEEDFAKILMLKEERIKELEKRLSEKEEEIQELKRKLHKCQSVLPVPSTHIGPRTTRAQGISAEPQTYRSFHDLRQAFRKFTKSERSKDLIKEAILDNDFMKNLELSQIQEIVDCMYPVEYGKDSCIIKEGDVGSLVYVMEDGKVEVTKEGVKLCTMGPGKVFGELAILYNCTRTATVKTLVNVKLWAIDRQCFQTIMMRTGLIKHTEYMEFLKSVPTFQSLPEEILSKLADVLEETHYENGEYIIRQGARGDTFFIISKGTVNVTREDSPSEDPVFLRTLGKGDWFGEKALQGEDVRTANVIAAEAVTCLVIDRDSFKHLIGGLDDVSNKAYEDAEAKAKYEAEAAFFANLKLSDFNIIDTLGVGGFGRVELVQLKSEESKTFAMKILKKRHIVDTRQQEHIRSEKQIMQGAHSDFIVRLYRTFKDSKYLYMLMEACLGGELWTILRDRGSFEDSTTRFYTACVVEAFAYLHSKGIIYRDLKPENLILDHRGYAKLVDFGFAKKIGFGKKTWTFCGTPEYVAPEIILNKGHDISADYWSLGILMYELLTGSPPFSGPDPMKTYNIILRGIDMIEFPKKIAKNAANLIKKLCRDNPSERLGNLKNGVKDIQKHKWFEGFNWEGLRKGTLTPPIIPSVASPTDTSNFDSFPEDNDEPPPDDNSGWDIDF", "assay": "KINOMEscan", "format": "binding", "settings": "1 uM"}, "MEK4": {"biological_target": "MEK4 (Homo sapiens (Human), UniProt P45985)", "assay": "KINOMEscan", "format": "binding", "settings": "1 uM"}, "CTK": {"biological_target": "CTK (Homo sapiens (Human), UniProt P42679)", "sequence (P42679 whole entry)": "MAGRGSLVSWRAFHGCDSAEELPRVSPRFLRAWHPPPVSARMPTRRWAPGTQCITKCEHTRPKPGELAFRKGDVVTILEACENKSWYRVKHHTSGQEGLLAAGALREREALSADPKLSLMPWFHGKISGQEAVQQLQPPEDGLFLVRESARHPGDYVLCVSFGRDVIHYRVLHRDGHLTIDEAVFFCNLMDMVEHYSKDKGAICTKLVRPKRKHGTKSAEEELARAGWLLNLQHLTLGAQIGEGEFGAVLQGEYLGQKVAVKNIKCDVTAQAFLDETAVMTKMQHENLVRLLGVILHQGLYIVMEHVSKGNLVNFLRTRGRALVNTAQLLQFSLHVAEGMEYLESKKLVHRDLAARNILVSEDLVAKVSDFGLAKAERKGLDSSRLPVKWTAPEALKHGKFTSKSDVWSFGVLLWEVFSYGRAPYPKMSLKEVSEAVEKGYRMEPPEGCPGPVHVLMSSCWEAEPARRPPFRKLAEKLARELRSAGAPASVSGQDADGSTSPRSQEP", "assay": "KINOMEscan", "format": "binding", "settings": "1 uM"}, "[2]": {"biological_target": "ABL1 (F317L)-nonphosphorylated (Homo sapiens (Human), UniProt P00519, F317L)", "assay": "KINOMEscan", "format": "binding", "settings": "1 uM"}, "RIPK1": {"biological_target": "RIPK1 (Homo sapiens (Human), UniProt Q13546)", "assay": "KINOMEscan", "format": "binding", "settings": "1 uM"}, "CAMKK1": {"biological_target": "CAMKK1 (Homo sapiens (Human), UniProt Q8N5S9)", "assay": "KINOMEscan", "format": "binding", "settings": "1 uM"}, "CLK3": {"biological_target": "CLK3 (Homo sapiens (Human), UniProt P49761)", "assay": "KINOMEscan", "format": "binding", "settings": "1 uM"}, "FLT3 (K663Q)": {"biological_target": "FLT3 (K663Q) (Homo sapiens (Human), UniProt P36888, K663Q)", "assay": "KINOMEscan", "format": "binding", "settings": "1 uM"}, "PRKD3": {"biological_target": "PRKD3 (Homo sapiens (Human), UniProt O94806)", "sequence (O94806 whole entry)": "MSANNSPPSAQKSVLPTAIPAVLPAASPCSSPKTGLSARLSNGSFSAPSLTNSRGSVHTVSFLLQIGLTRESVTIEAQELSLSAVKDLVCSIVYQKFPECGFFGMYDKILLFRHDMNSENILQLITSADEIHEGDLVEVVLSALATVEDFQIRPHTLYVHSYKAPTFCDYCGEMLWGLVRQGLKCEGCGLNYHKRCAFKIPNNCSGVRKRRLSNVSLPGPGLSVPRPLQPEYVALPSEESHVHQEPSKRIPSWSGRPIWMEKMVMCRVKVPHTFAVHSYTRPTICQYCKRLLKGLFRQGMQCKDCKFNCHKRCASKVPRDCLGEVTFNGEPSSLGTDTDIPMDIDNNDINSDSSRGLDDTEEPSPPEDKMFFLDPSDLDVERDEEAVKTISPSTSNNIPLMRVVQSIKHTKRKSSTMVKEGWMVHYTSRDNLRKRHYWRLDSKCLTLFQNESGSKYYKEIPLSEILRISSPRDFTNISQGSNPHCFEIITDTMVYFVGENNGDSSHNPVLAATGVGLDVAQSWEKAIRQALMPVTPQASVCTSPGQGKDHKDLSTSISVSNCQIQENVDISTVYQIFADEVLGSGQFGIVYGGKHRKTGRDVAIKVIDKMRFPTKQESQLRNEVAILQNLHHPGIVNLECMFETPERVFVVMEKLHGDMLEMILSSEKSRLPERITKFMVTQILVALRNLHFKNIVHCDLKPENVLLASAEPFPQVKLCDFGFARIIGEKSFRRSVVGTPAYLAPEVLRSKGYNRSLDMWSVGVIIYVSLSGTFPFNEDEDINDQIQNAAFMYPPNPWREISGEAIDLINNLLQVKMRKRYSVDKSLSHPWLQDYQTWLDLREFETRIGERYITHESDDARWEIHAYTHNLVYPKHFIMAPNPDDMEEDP", "assay": "KINOMEscan", "format": "binding", "settings": "1 uM"}, "CDK4-cyclinD3": {"biological_target": "CDK4-cyclinD3 (Homo sapiens (Human), UniProt P11802)", "assay": "KINOMEscan", "format": "binding", "settings": "1 uM"}, "PYK2": {"biological_target": "PYK2 (Homo sapiens (Human), UniProt Q14289)", "assay": "KINOMEscan", "format": "binding", "settings": "1 uM"}, "NEK1": {"biological_target": "NEK1 (Homo sapiens (Human), UniProt Q96PY6)", "assay": "KINOMEscan", "format": "binding", "settings": "1 uM"}, "QSK": {"biological_target": "QSK (Homo sapiens (Human), UniProt Q9Y2K2)", "assay": "KINOMEscan", "format": "binding", "settings": "1 uM"}, "FRK": {"biological_target": "FRK (Homo sapiens (Human), UniProt P42685)", "assay": "KINOMEscan", "format": "binding", "settings": "1 uM"}, "MTOR": {"biological_target": "MTOR (Homo sapiens (Human), UniProt P42345)", "assay": "KINOMEscan", "format": "binding", "settings": "1 uM"}, "CHEK2": {"biological_target": "CHEK2 (Homo sapiens (Human), UniProt O96017)", "sequence (O96017 whole entry)": "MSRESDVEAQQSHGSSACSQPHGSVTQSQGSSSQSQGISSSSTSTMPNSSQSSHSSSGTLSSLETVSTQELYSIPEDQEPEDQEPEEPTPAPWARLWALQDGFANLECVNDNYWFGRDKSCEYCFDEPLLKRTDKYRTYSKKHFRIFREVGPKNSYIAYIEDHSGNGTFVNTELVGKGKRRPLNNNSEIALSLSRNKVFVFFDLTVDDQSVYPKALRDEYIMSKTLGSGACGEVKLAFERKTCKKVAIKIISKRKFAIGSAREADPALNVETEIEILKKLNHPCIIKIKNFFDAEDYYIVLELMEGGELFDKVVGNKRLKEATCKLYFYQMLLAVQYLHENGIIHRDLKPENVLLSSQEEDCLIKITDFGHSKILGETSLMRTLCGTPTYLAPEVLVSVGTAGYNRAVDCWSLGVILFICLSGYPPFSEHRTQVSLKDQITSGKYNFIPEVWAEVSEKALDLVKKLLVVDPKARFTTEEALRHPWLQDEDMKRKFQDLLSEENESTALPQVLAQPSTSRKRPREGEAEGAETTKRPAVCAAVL", "assay": "KINOMEscan", "format": "binding", "settings": "1 uM"}, "PCTK1": {"biological_target": "PCTK1 (Homo sapiens (Human), UniProt Q00536)", "assay": "KINOMEscan", "format": "binding", "settings": "1 uM"}}}
{"smiles": "COc1ccc(N2C(=O)N(c3c(C)cccc3C)Cc3cnc(Nc4ccc(N5CCN(C)CC5)cc4)nc32)c(OC)c1", "note": "[HG-11-136-01]", "values": [{"measurement": "KINOMEscan CAMK1", "setting": "CAMK1", "value": 82}, {"measurement": "KINOMEscan KIT (V559D)", "setting": "KIT (V559D)", "value": 0}, {"measurement": "KINOMEscan SIK", "setting": "SIK", "value": 0.9}, {"measurement": "KINOMEscan AURKB", "setting": "AURKB", "value": 26}, {"measurement": "Viability loss AC40", "setting": "Viability loss (Table 4)", "value": 97, "unit": "nM"}, {"measurement": "Viability loss data mode", "setting": "Viability loss (Table 4)", "value": "decreasing"}, {"measurement": "KINOMEscan MARK2", "setting": "MARK2", "value": 3.7}, {"measurement": "KINOMEscan PFPK5 (P. falciparum)", "setting": "PFPK5 (P. falciparum)", "value": 96}, {"measurement": "KINOMEscan CSNK1D", "setting": "CSNK1D", "value": 100}, {"measurement": "KINOMEscan SBK1", "setting": "SBK1", "value": 6.6}, {"measurement": "KINOMEscan PIK3CA (E542K)", "setting": "PIK3CA (E542K)", "value": 88}, {"measurement": "KINOMEscan CSNK1G1", "setting": "CSNK1G1", "value": 92}, {"measurement": "KINOMEscan FGR", "setting": "FGR", "value": 0}, {"measurement": "KINOMEscan PAK3", "setting": "PAK3", "value": 11}, {"measurement": "KINOMEscan ACVR1", "setting": "ACVR1", "value": 2.8}, {"measurement": "KINOMEscan ULK2", "setting": "ULK2", "value": 2.2}, {"measurement": "KINOMEscan AURKC", "setting": "AURKC", "value": 33}, {"measurement": "KINOMEscan NEK4", "setting": "NEK4", "value": 100}, {"measurement": "KINOMEscan LIMK1", "setting": "LIMK1", "value": 0.05}, {"measurement": "KINOMEscan SNARK", "setting": "SNARK", "value": 0.4}, {"measurement": "KINOMEscan ZAP70", "setting": "ZAP70", "value": 25}, {"measurement": "KINOMEscan ABL1 (T315I)-phosphorylated", "setting": "[1]", "value": 1.2}, {"measurement": "KINOMEscan p38-delta", "setting": "p38-delta", "value": 100}, {"measurement": "KINOMEscan AKT2", "setting": "AKT2", "value": 100}, {"measurement": "KINOMEscan ULK1", "setting": "ULK1", "value": 3.2}, {"measurement": "KINOMEscan PRKG1", "setting": "PRKG1", "value": 100}, {"measurement": "KINOMEscan MEK4", "setting": "MEK4", "value": 48}, {"measurement": "KINOMEscan CTK", "setting": "CTK", "value": 33}, {"measurement": "KINOMEscan ABL1 (F317L)-nonphosphorylated", "setting": "[2]", "value": 0}, {"measurement": "KINOMEscan RIPK1", "setting": "RIPK1", "value": 35}, {"measurement": "KINOMEscan CAMKK1", "setting": "CAMKK1", "value": 94}, {"measurement": "KINOMEscan CLK3", "setting": "CLK3", "value": 78}, {"measurement": "KINOMEscan FLT3 (K663Q)", "setting": "FLT3 (K663Q)", "value": 31}, {"measurement": "KINOMEscan PRKD3", "setting": "PRKD3", "value": 5.4}, {"measurement": "KINOMEscan CDK4-cyclinD3", "setting": "CDK4-cyclinD3", "value": 26}, {"measurement": "KINOMEscan PYK2", "setting": "PYK2", "value": 15}, {"measurement": "KINOMEscan NEK1", "setting": "NEK1", "value": 88}, {"measurement": "KINOMEscan QSK", "setting": "QSK", "value": 0.25}, {"measurement": "KINOMEscan FRK", "setting": "FRK", "value": 0.05}, {"measurement": "KINOMEscan MTOR", "setting": "MTOR", "value": 83}, {"measurement": "KINOMEscan CHEK2", "setting": "CHEK2", "value": 46}, {"measurement": "KINOMEscan PCTK1", "setting": "PCTK1", "value": 73}]}
